# From patent US10400263B2, “Tripeptide rhodamine compound” (Kingston Uninversity Higher Education Corporation, priority 2012, dated 2019)
# How the values were obtained:
# MSSA = assay: LGX staphylocoagulase fluorescence assay, MSSA isolates; type: cell-based, Staphylococcus aureus
# Protocol: (§1) Each sample was rinsed liberally in sterile 1×PBS and varying concentrations of bacterial suspension from 10^0-10^6 were generated by serial dilution in 1×PBS. Additionally, bacterial cultures were furthermore maintained on nutrient agar to assess the coagulase status of the isolate.
# (§2) To determine the effects of varying bacterial concentrations with respect to bacterial strains and concentrations of the compounds according to the present invention on staphylocoagulase activity, 100 and 50 μM solutions containing LGX were prepared in 1×PBS with the addition of 0.05 M Tris Buffer and 0.1 M NaCl to maintain a pH of 8.5 using LGX dissolved in MeOH so that final concentration of methanol was no more than 2.5%. Furthermore, an appropriate concentration (100 μM and 50 μM, respectively) of human prothrombin was added to the solution.
# (§3) The plate reader used was a Fluostar Optima, and the plates used were Nunclon Surface 96 well plates. Positive controls for each experiment was a strain of MRSA, and the negative control for each experiment was a strain of E. coli, both of which were picked at random to ensure there was no bias within the data. A 1:1 ratio of the LGX solution with PBS was also assayed as “LGX alone” sample, which has been designated as a black line on the graphs below. n=3 cultures were assayed in each case.
# (§4) Clinical isolates of Methicillin Resistant Staphylococcus Aureus (MRSA), Methicillin Sensitive Staphylococcus Aureus (MSSA), Staphylococcus Epidermidis, Eschericia coli and other staphyloccal species were cultured on nutrient agar prior to being grown overnight in nutrient broth under shaking conditions at 37° C. Each sample was rinsed liberally in sterile 1×PBS and varying concentrations of bacterial suspension from […] were generated by serial dilution in 1×PBS. Additionally, bacterial cultures were furthermore maintained on nutrient agar to assess the coagulase status of the isolate.
# (§5) To determine the effects of varying bacterial concentrations with respect to bacterial strains and LGX concentrations on staphylocoagulase activity, 100 and 50 μM solutions of LGX were prepared in 1×PBS with the addition of 0.05 M Tris Buffer and 0.1 M NaCl to maintain a pH of 8.5 using LGX dissolved in MeOH so that final concentration of methanol was no more than 2.5%. Furthermore, an appropriate concentration (100 μM and 50 μM, respectively) of human prothrombin was added to the solution. 90 μl of LGX solution in addition to each respective bacterial isolate at varying concentrations was added to a microtitre plate. […] The plate reader used was a Fluostar Optima, and the plates used were Nunclon Surface 96 well plates.
# S. hominus = assay: LGX system, S. hominus; type: cell-based
# Protocol: as §1
# as §2, with “Furthermore, an appropriate concentration (100 μM and 50 μM, respectively) of human prothrombin was added to the solution.” left out
# (§6) The plate reader used was a Fluostar Optima, and the plates used were Nunclon Surface 96 well plates. […]
# (§7) To determine the effects of varying bacterial concentrations with respect to bacterial strains and LGX concentrations on staphylocoagulase activity, 100 and 50 μM solutions of LGX were prepared in 1×PBS with the addition of 0.05 M Tris Buffer and 0.1 M NaCl to maintain a pH of 8.5 using LGX dissolved in MeOH so that final concentration of methanol was no more than 2.5%. […] The plate reader used was a Fluostar Optima, and the plates used were Nunclon Surface 96 well plates.
# MRSA = assay: LGX staphylocoagulase fluorescence assay, MRSA isolates; type: cell-based, Staphylococcus aureus
# Protocol: as §1, §2, §3, §4, §5
# S. epidermidis = assay: LGX staphylocoagulase fluorescence assay, S. epidermidis; type: cell-based, Staphylococcus Epidermidis; details: for fluorescence over the 6 hour time period: S. epidermidis, high and low concentrations
# Protocol: as §1, §2
# The plate reader used was a Fluostar Optima, and the plates used were Nunclon Surface 96 well plates. Positive controls for each experiment was a strain of MRSA, and the negative control for each experiment was a strain of E. coli, both of which were picked at random to ensure there was no bias within the data. A 1:1 ratio of the LGX solution with PBS was also assayed as “LGX alone” sample, which has been designated as a black line on the graphs below. n=3 cultures were assayed in each case. […]
# as §7
# S. aureus = assay: LGX test on volunteers' nasal swabs with prothrombin or prethrombin; type: cell-based, Staphylococcus aureus; details: for samples tested positive for S. aureus: threshold 20,000 RFU
# Protocol: A population of 113 volunteers were administered a “set” of swabs, comprising two swabs that were pre-moistened with sterile H2O, and one swab that was dry. Each volunteer swabbed the internal periphery of each nostril with the two moistened swabs. Each volunteer then subsequently swabbed the internal periphery of each nostril with the dry swab. The swabs were then placed into amies transport medium to maintain bacterial cell viability. Each sample was anonymous and the study was randomised.
# A 100 μL solution of 100 μM LGX with either 1×prothrombin or 1×prethrombin (buffered to pH 8.5 with Tris base and NaCl), was pipetted into sterile 1.5 mL eppendorf tubes. Each moistened swab was placed into the eppendorf tube, and cut to a length to facilitate closure of the tube, with a pair of sterilised scissors. Each tube was subjected to vigorous agitation and the swab tips were removed with sterile forceps. The remaining solution was subsequently pipetted into a microtitre plate (Nunclon 96 well plates). The relative fluorescence of the sample was then recorded every fifteen minutes over a six hour time period (λex.=488 nm and λem=525 nm).
# In tandem with this, the remaining swabs (in amies transport medium) were transferred onto pre warmed mannitol salt agar (chromogenic agar for the determination of S. aureus) plates and incubated for up to 48 hours at 37° C. The colour change and colony appearance of the bacteria was noted. […] Following this, 20 separate, discrete colonies were sub-cultured onto nutrient agar and also onto Baird Parker Agar (agar for the determination of S. aureus and S. epidermidis). After an overnight culture at 37° C., colony morphology and appearance was observed (S. aureus colonies are large with a pale “halo” surrounding the colonies, S. epidermidis colonies are small and black).
# Additionally, isolates from the nasal swabs cultured on nutrient agar were tested for coagulase activity using a staphylase test kit (oxoid). Loopfuls of bacteria were assayed based on coagulase mediated clumping of fibrinogen-sensitised ovine blood cells.
# A final test to determine the identification of the bacteria within each sample, a gram stain was performed. This is based on the presence of peptidoglycan in gram positive cells and their ability to retain crystal violet. S. aureus is a gram positive bacterium. Briefly, a drop of sterile dH2O was placed on a microscope slide and a small amount of culture was applied to this and allowed to air dry. The slide was passed though a flame to fix the bacteria. Crystal Violet was applied to each slide, followed by washing with dH2O. Iodine was then added to the slides, followed by washing with dH2O and subsequent decolourisation with ethanol and another wash with dH2O. Each slide was counterstained with carbol fushchin (for gram negative), rinsed again and allowed to dry.
# Each swab sample was examined for the presence of S. aureus based on the above identification techniques, and termed “positive” or “negative”. The results were compared to the finding of the assay of the current invention (LGX test), with either prethrombin or prothrombin, and plotted on a bar chart as a function of relative fluorescence units.
# M. luteus = assay: LGX system, M. luteus; type: cell-based
# Protocol: as §1
# as §2, with “Furthermore, an appropriate concentration (100 μM and 50 μM, respectively) of human prothrombin was added to the solution.” left out
# as §6, §7
compound,measurement,setting,value
"CC(C)[C@H](NC(=O)OC(C)(C)C)C(=O)N1CCC[C@H]1C(=O)N[C@@H](CCCNC(=N)N)C(=O)Nc1ccc2c(c1)Oc1cc(NC(=O)[C@H](CCCNC(=N)N)NC(=O)[C@@H]3CCCN3C(=O)[C@@H](NC(=O)OC(C)(C)C)C(C)C)ccc1C21OC(=O)c2ccccc21 (stereo partly drawn) [LGX, Rho-(Arg-Pro-Val-NHBoc)2]",samples reaching maximum fluorescence,"MSSA; 50 μM LGX, MSSA 10^2, 6 hours",no samples reached maximum fluorescence
same,"samples reaching the maximum reading of 65,000 RFU within 2.5 hours","MSSA; 50 μM LGX, MSSA 10^3",25%
same,samples that had reached maximum fluorescence within 6 hours,"MSSA; 50 μM LGX, MSSA 10^3",60%
same,samples failed to reach maximum fluorescence within 6 hours,"MSSA; 50 μM LGX, MSSA 10^5",5%
same,"samples reaching the maximum reading of 65,000 RFU within 2 hours","MSSA; 50 μM LGX, MSSA 10^5",75%
same,time by which maximum fluorescence level was reached,"MSSA; 50 μM LGX, MSSA 10^6",≤ 2 h
same,"samples achieving a fluorescence reading of 20,000 within 1 hour","MSSA; 100 μM LGX, MSSA 10^2",90%
same,samples reached maximum fluorescence over a 6 hour time period,"MSSA; 100 μM LGX, MSSA 10^2",25%
same,samples reached maximum fluorescence within 2 hours,"MSSA; 100 μM LGX, MSSA 10^2",5%
same,samples reached maximum fluorescence within 4 hours,"MSSA; 100 μM LGX, MSSA 10^3",45%
same,samples in which fluorescence reached its upper limits within 1 hours,"MSSA; 100 μM LGX, MSSA 10^4",70%
same,samples remained below maximum fluorescence,"MSSA; 100 μM LGX, MSSA 10^4",20%
same,LGX SYSTEM,MSSA; MSSA,+
same,LGX SYSTEM,S. hominus,−
same,samples failed to reach maximum fluorescence within the 6 hour time frame,"MRSA; 50 μM LGX, MRSA 10^2",60%
same,"samples reaching the maximum reading of 65,000 RFU within 4 hours","MRSA; 50 μM LGX, MRSA 10^2",40%
same,samples failed to reach maximum fluorescence within the 6 hour time frame,"MRSA; 50 μM LGX, MRSA 10^3",40%
same,"samples reaching the maximum reading of 65,000 RFU within 4 hours","MRSA; 50 μM LGX, MRSA 10^3",60%
same,samples failed to reach maximum fluorescence within 5 hours,"MRSA; 50 μM LGX, MRSA 10^5",20%
same,"samples reaching the maximum reading of 65,000 RFU within 2 hours","MRSA; 50 μM LGX, MRSA 10^5",60%
same,samples failed to reach maximum,"MRSA; 50 μM LGX, MRSA 10^6",10%
same,"samples reaching the maximum reading of 65,000 RFU within 2 hours","MRSA; 50 μM LGX, MRSA 10^6",90%
same,"time by which maximum fluorescence level was reached, all samples","MRSA; 50 μM LGX, MRSA 10^6",≤ 2 h
same,time for fluorescence readings to reach a maximum,"MRSA; 50 μM LGX, MRSA positive control at 10^6, 10^5 and 10^3",almost immediately or within an hour
same,time for fluorescence readings to reach a maximum,"MRSA; 50 μM LGX, MRSA positive control, lower concentrations",6 h
same,"samples achieving a fluorescence reading of 20,000 within 1 hour","MRSA; 100 μM LGX, MRSA 10^2",95%
same,samples in which fluorescence reached its upper limits within 4 hours,"MRSA; 100 μM LGX, MRSA 10^2",40%
same,time for fluorescence to reach a maximum,"MRSA; 100 μM LGX, MRSA 10^2, FIG. 14",approximately 3 hours
same,samples in which fluorescence reached its upper limits within 3 hours,"MRSA; 100 μM LGX, MRSA 10^3",40%
same,MRSA reaching maximum fluorescence over the 6 hours time period,"MRSA; 100 μM LGX, MRSA 10^4",90%
same,samples in which fluorescence reached its upper limits within 2 hours,"MRSA; 100 μM LGX, MRSA 10^4",50%
same,isolates failed to reach maximum fluorescence over 6 hours,"MRSA; 100 μM LGX, MRSA lower concentrations of 10^3 and 10^4 (so in the source)",40%
same,time for fluorescence to reach a maximum,"MRSA; 100 μM LGX, MRSA positive control, all concentrations (10^4, 10^3 and 10^3 as printed)",≤ 3 h
same,LGX SYSTEM,"MRSA; MRSA, detection of coagulase positive samples",+
same,fluorescence over the 6 hour time period,"S. epidermidis; 50 μM LGX, FIG. 13",no increase in fluorescence was observed
same,fluorescence over the 6 hour time period,"S. epidermidis; 100 μM LGX, FIG. 14",no increase in fluorescence was observed
same,LGX SYSTEM,S. epidermidis; S. EPIDERMIDIS,−
same,time in which S. aureus was efficiently detected,S. aureus; 100 μM LGX with 1×prethrombin,15 min
same,samples tested positive for S. aureus,"S. aureus; 100 μM LGX with 1×prethrombin, 15 minutes",approximately 49 samples
same,samples tested positive for S. aureus,"S. aureus; 100 μM LGX with 1×prethrombin, 60 minutes",approximately 49 samples
same,time in which S. aureus was efficiently detected,S. aureus; 100 μM LGX with 1×prothrombin,15 min
same,samples tested positive for S. aureus,"S. aureus; 100 μM LGX with 1×prothrombin, 15 minutes, 113 volunteers",approximately 29 samples
same,samples tested positive for S. aureus,"S. aureus; 100 μM LGX with 1×prothrombin, 60 minutes",approximately 34 samples
same,LGX SYSTEM,M. luteus,−
same,coagulase result with LGX system,M. luteus,negative
